Key:
Assay in all cases: relative viability (nuclei count vs DMSO), 5 days (fraction); higher = more cells survive
[1] = compound: COc1cc(N2CCC(N3CCN(C)CC3)CC2)ccc1Nc1ncc(Cl)c(Nc2ccccc2S(=O)(=O)C(C)C)n1 [NVP-TAE684] + CC1(C)CCC(c2ccc(Cl)cc2)=C(CN2CCN(c3ccc(C(=O)NS(=O)(=O)c4ccc(N[C@H](CCN5CCOCC5)CSc5ccccc5)c(S(=O)(=O)C(F)(F)F)c4)cc3)CC2)C1 [Navitoclax] (partner 0.5 µM)
Method in brief: (§1)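 A single step with final 0.05% Triton X-100, 1% formaldehyde and 1 ug/ml Hoechst fixed the cells and stained nuclei 5 days after treatment. Lung cancer cell lines in 1536-well plates had been treated by pin tool the day after seeding with one drug alone or a fixed anchor-drug dose plus five library-drug doses (not always all listed) in √10 steps, and nuclei were counted on 4× images. Relative viability is the ratio of nuclei in treated wells to nuclei in vehicle wells, taken as the median of duplicate plates.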

[2] = compound: C1=CC=C2C(=C1)N=C(S2)C(C#N)C3=NC(=NC=C3)NCCC4=CN=CC=C4 + CCNC(=O)c1noc(-c2cc(C(C)C)c(O)cc2O)c1-c1ccc(CN2CCOCC2)cc1 [Luminespib] (partner 0.01 µM)
Method in brief: as §1

[3] = compound: COc1cc2/c(=N/c3ccc(Br)cc3F)nc[nH]c2cc1OCC1CCN(C)CC1 [Vandetanib] + CC(=O)Nc1cccc(-n2c(=O)n(C3CC3)c(=O)c3c(Nc4ccc(I)cc4F)n(C)c(=O)c(C)c32)c1 [Trametinib] (partner 0.02 µM)
Method in brief: as §1

[4] = compound: C#Cc1cccc(Nc2ncnc3cc(OC)c(OCCCCCCC(=O)NO)cc23)c1 [CUDC-101] + COc1cccc2cc(-c3nc([C@H]4CC[C@H](C(=O)O)CC4)n4ncnc(N)c34)[nH]c12 [OSI-027] (partner 0.5 µM)
Method in brief: as §1

Cell Line	relative viability ([1]; first compound 0.2 µM)	relative viability ([1]; first compound 0.6325 µM)	relative viability ([1]; first compound 2 µM)	relative viability ([2]; first compound 0.005 µM)	relative viability ([2]; first compound 0.01581 µM)	relative viability ([2]; first compound 0.05 µM)	relative viability ([2]; first compound 0.1581 µM)	relative viability ([2]; first compound 0.5 µM)	relative viability ([3]; first compound 0.02 µM)	relative viability ([3]; first compound 0.06325 µM)	relative viability ([3]; first compound 0.2 µM)	relative viability ([3]; first compound 0.6325 µM)	relative viability ([3]; first compound 2 µM)	relative viability ([4]; first compound 0.01 µM)	relative viability ([4]; first compound 0.03162 µM)	relative viability ([4]; first compound 0.1 µM)	relative viability ([4]; first compound 0.3162 µM)	relative viability ([4]; first compound 1 µM)
CAL-12T	1.35	1.18	0.407	0.371	0.361	0.422	0.435	0.235	0.342	0.3	0.316	0.242	0.305	0.706	0.668	0.777	0.71	0.575
HCC-44	–	1.02	0.453	0.988	–	1.03	1.05	0.951	1.1	1.04	1.06	1.15	1.06	0.527	0.685	0.587	0.586	0.295
NCI-H1755	1.06	1.06	0.921	0.458	0.406	0.262	0.576	0.61	0.749	0.731	0.794	0.749	0.751	0.624	0.729	0.794	0.781	0.571
SK-LU-1	1.12	0.88	0.206	0.185	0.194	0.187	0.223	0.197	0.453	0.344	0.562	0.567	0.458	0.356	0.332	0.431	0.402	0.325
NCI-H2126	0.951	0.84	0.621	0.561	0.87	0.73	0.997	0.836	0.58	0.546	0.556	0.502	0.504	0.678	0.659	0.662	0.668	0.508
201T	1.21	1.19	1.12	1.06	1.06	1.09	1.07	1.07	0.715	0.68	0.751	0.696	0.676	0.801	0.703	–	0.752	0.687
LU99A	0.802	0.769	0.362	0.188	0.254	0.262	0.268	0.274	0.486	0.518	0.396	0.512	0.539	0.297	0.305	0.302	0.289	0.239
NCI-H647	1.4	1.06	1.16	0.208	0.262	0.169	0.235	0.286	0.458	0.474	0.469	0.451	0.436	0.68	0.668	0.783	0.596	0.383
LC-2-ad	0.394	0.264	0.12	0.807	1.06	0.965	1.17	0.91	0.899	0.858	0.939	0.861	0.662	0.823	1.04	0.985	0.827	0.339
